Patent US7393839B2, “Polymorphic antiviral nucleoside compounds” (Roche Palo Alto LLC, priority 2003, dated 2008)
Counter-ions that a name gives are not always drawn.

Experiments:
[1] = Accelerated stability study (Form A): temperature, humidity, light; format: physicochemical
Experimental: Stability samples were evaluated for appearance, water content, chemical stability using an HPLC method and physical stability using DSC, specific rotation and x-ray powder diffraction methods. Photochemical stability was assessed by comparison with a control sample that was wrapped in aluminum foil and set side by side with the light sample in the light chamber.
DSC Thermograms were collected using a 2920 Modulated DSC from Thermal Analyzer (TA) Instruments. The heating rate was 10° C./min with a nitrogen purge maintained throughout the run.
Chromatography was carried out on a Zorbax SB-CN, 4.6×150 mm, 3.5 μm column. A ternary solvent gradient was used comprised of (A) water, (B) acetonitrile and (C) 200 mM heptane sulfonic acid sodium salt, monohydrate with 1% phosphoric acid in water. To prepare 500 mL of the solution, dissolve 22.0 g of 1-heptane sulfonic acid sodium salt, monohydrate in about 400 mL of water. Add 5 mL of phosphoric acid, 85% and then dilute to a volume of 500 mL with water and mix thoroughly. A flow rate of 1.0 mL/m was used. The column was run isocratically with 90% A and 10% C for 5 m. A linear gradient to 20% A, 70% B and 10% C was run over 20 m. This mixture was run isocratically for an addition 5 m after which the solvent was ramped back to 90% A and […] over 2 m followed by 8 m to reequilibrate the column. The column was maintained at 40° C.

Bulk and tap density = format: physicochemical
Experimental: The bulk density of Ib was determined Vanderkamp™ tap density tester, with an acoustic cabinet, or equivalent (Van-Kel Industries, Inc., 36 Meridian Road, Edison, N.J. 08820) apparatus following. Ib was passed through a 20 mesh. A powder funnel was placed on top of a cylinder and the powder was transferred rapidly in to the cylinder while avoiding agitation or tapping of the cylinder and the lower funnel. The sample weight in the cylinder was determined and the bulk density was calculated.
The tapped density was determined by measuring the volume of drug substance in a 25 mL graduated cylinder after 300 taps of a known amount of drug substance. The apparatus used was a VanderKamp Tapped Density Tester. The tapped density was calculated as the known weight of drug substance divided by the measured volume.

[2] = Physical stability of Form B on storage; format: physicochemical; conditions: ambient temperature, 25° C./60% RH, 30° C./60% RH, 40° C./75% RH, at least 4 weeks
Source text: The Form B-polymorph was crystallized from water and formed platelets (FIG. 3B). […] (FIG. 5B) corresponding to approximately one mole of water per mole of Ib.

[3] = Thermal stability on modulated temperature x-ray diffractometer; format: physicochemical; conditions: for thermal stability of crystalline form: monohydrochloride
Vacuum drying of Form B = format: physicochemical
Th1 cytokine expression = conditions: antiviral Th1 cytokine expression; cited from earlier work
HCV = conditions: unlike ribavirin; cited from earlier work
[4] = compared with ribavirin; cited from earlier work
[5] = Vapor sorption analysis (hygroscopicity); format: physicochemical
Source text: Vapor sorption analysis was used to assess the hygroscopicity of the Form A polymorph. The experiment was run in an isothermal mode and the sample weight recorded as the relative humidity was varied. During the adsorption phase Ib gained 0.5 wt % between 5% relative humidity (RH) and 85% RH. […] At the end of the analysis the sample was still solid and appeared to be crystalline. After the TGA analysis a portion of the sample was recovered and analyzed by DSC. The DSC thermograms of the starting material and of the material recovered following vapor sorption analysis were superimposable.
The experimental protocol was set up to dry the sample at 60° C. for a maximum of 1 h or until an equilibrium condition was reached which fluctuated less then 0.02 wt % in 5 min. The experiment was run isothermally at 25° C., and the %RH was increased from 5% to 95% in 10% increments. After each increment the sample held constant until equilibrium was reached. Equilibrium was defined as a per cent weight change of not more than 0.005 wt % in 5.00 minutes. After reaching 95% RH the RH was lowered back to 5% RH. If equilibrium was not reached within 2 hours, the %RH was advanced to the next programmed level.

[6] = heating from room temperature to 175° C.
[7] = Light Control (wrapped in aluminum foil), ICH Q1B

## CC(C)C(N)C(=O)OC[C@@H]1O[C@H](n2cnc(C(N)=O)n2)[C@@H](O)[C@H]1O (stereo partly drawn) [Ib, 2-(S)-amino-3-methyl-butyric acid 5S-(3-carbamoyl-[1,2,4]triazol-1-yl)-3R,4S-dihydroxy-tetrahydrofuran-2S-yl methyl ester, monohydrochloride]
[1]; over the study period, all storage conditions
  change in DSC thermograms, specific rotation, water content, x-ray diffraction pattern and purity: no discernable change
Bulk and tap density
  bulk density: 0.35 g/mL
Bulk and tap density; after 300 taps
  tapped density: 0.58 g/mL

## 2-(S)-amino-3-methyl-butyric acid 5S-(3-carbamoyl-[1,2,4]triazol-1-yl)-3R,4S-dihydroxy-tetrahydrofuran-2S-yl methyl ester, monohydrochloride [Form B]
[2]
  physical stability on storage: physically stable
[3]; from 32° C. to 140° C.
  crystalline form after heating and cooling: conversion of Form B into Form A
[3]; [6]
  temperature above which Form B was converted into Form A: above 80 °C
  thermal stability of crystalline form: unstable
Vacuum drying of Form B; at elevated temperature
  crystalline form after vacuum drying: conversion of Form B to Form A
Vacuum drying of Form B; in the absence of heat
  crystalline form after vacuum drying: stable

## NC(=O)c1ncn([C@H]2O[C@@H](CO)[C@H](O)[C@@H]2O)n1 [Levovirin, 1-(3S,4R-dihydroxy-5S-hydroxymethyl-tetrahydro-furan-2S-yl)-1H-[1,2,4]triazole-3-carboxylic acid amide]
Th1 cytokine expression
  immune response: stimulates immune responses by enhancing antiviral Th1 cytokine expression
HCV
  direct antiviral activity: does not have direct detectable antiviral activity
[4]
  toxicity: appears to lack toxicity associated with ribavirin

## 2-(S)-amino-3-methyl-butyric acid 5S-(3-carbamoyl-[1,2,4]triazol-1-yl)-3R,4S-dihydroxy-tetrahydrofuran-2S-yl methyl ester, monohydrochloride [Form A]
[1]; 2–8° C., 3 months
  % Purity (ext. std): 99.9%
  Appearance: White to off-white
[1]; 2–8° C., 4 weeks
  % Purity (ext. std): 100.4%
  Appearance: White crystalline
[1]; 25° C. 60% RH, 3 months
  % Purity (ext. std): 99.8%
  Appearance: White to off-white
[1]; 25° C. 60% RH, 4 weeks
  % Purity (ext. std): 100.2%
  Appearance: White crystalline
[1]; 30° C. 60% RH, 3 months
  % Purity (ext. std): 100.2%
  Appearance: White to off-white
[1]; 30° C. 60% RH, 4 weeks
  % Purity (ext. std): 100.7%
  Appearance: White crystalline
[1]; 40° C. 75% RH, 3 months
  % Purity (ext. std): 100.1%
  Appearance: White to off-white
[1]; 40° C. 75% RH, 4 weeks
  % Purity (ext. std): 100.6%
  Appearance: White crystalline
[1]; 60° C., 3 months
  % Purity (ext. std): 98.7%
  Appearance: White to off-white
[1]; 60° C., 4 weeks
  % Purity (ext. std): 100.8%
  Appearance: White crystalline
[1]; [7]
  % Purity (ext. std): 100.9%
  Appearance: White crystalline
[1]; Light, ICH Q1B
  % Purity (ext. std): 100.9%
  Appearance: White crystalline
[1]; RT, Initial
  % Purity (ext. std): 98.1%
  Appearance: White crystalline
[3]; [6]
  thermal stability of crystalline form: did not change its crystalline form
[5]; 5%-95%-5% RH cycle, 25° C.
  hygroscopicity: not hygroscopic
[5]; after 5%-95%-5% RH cycle
  DSC thermograms of starting material and material recovered following vapor sorption analysis: superimposable
[5]; between 5% RH and 85% RH, isothermal 25° C.
  weight gained during adsorption phase: 0.5 wt %
[5]; between 85% and 95% RH, isothermal 25° C.
  weight increase during adsorption phase: < 2.5 weight percent
[5]; same %RH ranges, desorption
  weight change during desorption phase: virtually all of the weight gained in the adsorption phase was lost
